Measurements as given in PubChem BioAssay (NCI).
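The compound was tested at five concentrations on cells cultured in 96-well plates, with a 48-hour exposure period. Definition used: TGI = concentration required for complete inhibition of growth.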

What was measured:
Assay in all cases: NCI tumour cell line growth inhibition, 48 h
RXF-631 renal = tested on: RXF-631 renal
P388 leukemia = tested on: P388 leukemia
P388/ADR leukemia = tested on: P388/ADR leukemia
SN12K1 renal = tested on: SN12K1 renal

| SMILES | TGI (RXF-631 renal) [µM] | also measured |
| --- | --- | --- |
| C[C@H]1[C@H](C)CC[C@]2(C(=O)O)CCC3(COC(=O)/C=C/c4ccc(O)cc4)C(=CCC4[C@@]5(C)CC[C@H](O)C(C)(C)C5CC[C@]43C)[C@H]12 (stereo partly drawn) | 30.4 |  |
| CC(/C=C1\CCC(CN(C)C)C1=O)c1cccc(Br)c1 (stereo not drawn) | 16.9 |  |
| Cc1ccc(-c2nc3ccccc3c(=O)n2NC2OC(CO)C(O)C(O)C2O)cc1 (stereo not drawn) | > 100 |  |
| CN(CO)c1nc(N(C)CO)nc(N(C)CO)n1 |  | TGI (P388 leukemia): 23.8 µM; TGI (P388/ADR leukemia): 69.1 µM; TGI (SN12K1 renal): 14.1 µM |
| COC(=O)/C(=N\Nc1nc(=S)[nH]n1N)C(C#N)c1ccc(Cl)cc1 (stereo not drawn) | > 100 |  |
| O=[N+]([O-])c1cc(C(F)(F)F)cc2n[se]nc12 | 30.8 |  |
| CCCCCC1CC=CC(NC(=O)OCc2ccccc2)C1/C=C/CCCC1OCCO1 (stereo not drawn) | > 100 |  |
| CCCCCCCCCCCCCP(=O)(OC)OC | 32.5 |  |
| C=C1CCCC2OC(OC)CCC12 (stereo not drawn) | > 100 |  |
| CCCCCCCCC1C(C)c2c([nH]c3ccccc23)C2C(=O)N(c3ccccc3)C(=O)C21 (stereo not drawn) | 14.2 |  |
| CCCCCCCCCCCCCC(=O)NO | > 62.5 |  |
| CSC(=NC(=O)c1ccccc1)SCCSC(=NC(=O)c1ccccc1)SC | > 100 |  |
| CCc1cc2c(Nc3ccccc3)c3c(nc2s1)CCCC3 | > 100 |  |
| COc1ccc(C(=O)Nc2ccn(CCOC(=O)c3ccc(OC)cc3)c(=O)n2)cc1 | > 100 |  |
| COc1ccccc1/C=C1\CCC(CN2CCOCC2)C1=O (stereo not drawn) | 24.4 |  |
| COC(=O)/C=C(C)/C=C/c1c(C)c(C(C)=O)c(C)n1C | > 100 |  |
